# Test results taken from patent US20070202079A1, “Therapeutic compositions and methods useful in modulating protein tyrosine phosphatases” (priority 2006, published 2007).
# Several values for one entry are separate records, joined by “and”; a condition that tells them apart may be missing. Equal values may be shown once. Entries after “also recorded” stand apart in the source; their conditions may differ.
# Experiments:
# HL-60 cells = experiment: HL-60 differentiation (NBT reduction); type: cell-based, human; settings: day 6
# Procedure: (§1) Differentiation of AML cell lines was assessed by their ability to produce superoxide as measured by reduction of NBT to formazan and by analysis of expression of CD11b surface marker by flow cytometry. For NBT reduction, each cell suspension was mixed with an equal volume of solution containing 1 mg/ml of NBT (Sigma) and 2.5 μg/ml of TPA for 30 minutes at 37° C. After incubation, cells containing the purple formazan deposits and cells devoid of NBT-reducing activity (white cells) in each sample were determined by counting 200 cells under microscope. Data is expressed as a percentage based on the following ratio: purple cells/purple+white cells. For analysis of cell surface antigens, cells were exposed to phycoerythrin (PE)-conjugated murine anti-human CD11b (DAKO Corp., Carpinteria, Calif.). Analysis of fluorescence was performed on a FACScan flow cytometer (Beckton Dickinson, Mountain View, Calif.).
# U937 cells = experiment: U937 differentiation (NBT reduction); type: cell-based, human; settings: day 6
# Procedure: as §1
# NB4 cells [1] = experiment: NB4 differentiation (NBT reduction, CD11b); type: cell-based, human
# Procedure: as §1
# Renca tumors = Renca tumors in Balb/c mice; type: in vivo; settings: two weeks; SSG 12 mg/daily i.m., i.p.
# Procedure: Balb/c and athymic nude Balb/c mice (10 weeks old, female, Taconic Farms, Germantown, N.Y.) were inoculated (s.c.) at the flanks with Renca cells (10^6 cells/site). Four days post-inoculation, the mice were subject to no treatment (Control) or treatment with IL-2 ([…]/daily for 5 days, i.p.), SSG (12 mg/daily, i.m. at hip regions) or the combination of the two agents for two weeks. […] The dose of SSG was similar to the effective daily dose of the drug for the treatment of murine leishmaniasis (Murray, H. W., J. D. Berman, and S. D. Wright. 1988. Immunochemotherapy for intracellular Leishmania donovani infection: gamma interferon plus pentavalent antimony. J Infect Dis 157:973). Tumor volume was measured during the study period and calculated using the formula for a prolate spheroid (V=4/3×a2b) (Lindner, D. J., E. C. Borden, and D. V. Kalvakolanu. 1997. Synergistic antitumor effects of a combination of interferons and retinoic acid on human tumor cells in vitro and in vivo. Clin Cancer Res 3:931). Student's t test was used for assessing the significance of tumor volume differences among differential treatment groups. Mouse viability (daily) and body weights (weekly) were also recorded during the study period. At the end of the study, Renca tumors and major internal organs (heart, kidney, liver, lung and spleen) were harvested for histology and immunohistochemistry analysis.
# [2] = test system: tumor-infiltrating and spleen immune cells (F4/80+, CD4+, CD8+); experiment: immunohistochemistry of Renca tumors and spleen; type: in vivo, Balb/c mice; settings: Renca tumors, end of treatment
# Procedure: Major internal organs and Renca tumors harvested from mice were fixed in 10% formalin or snap frozen in liquid nitrogen. H & E-stained tissue sections of the fixed samples were prepared and evaluated by microscopy as described previously (Yi, T., M. K. Pathak, D. J. Lindner, M. E. Ketterer, C. Farver, and E. C. Borden. 2002. Anticancer activity of sodium stibogluconate in synergy with IFNs. J Immunol 169:5978). Preparation of frozen tissue sections and immunohistochemistry were performed following established procedures (Joliat, M. J., P. A. Lang, B. L. Lyons, L. Burzenski, M. A. Lynes, T. Yi, J. P. Sundberg, and L. D. Shultz. 2002. Absence of CD5 dramatically reduces progression of pulmonary inflammatory lesions in SHP-1 protein-tyrosine phosphatase-deficient ‘viable motheaten’ mice. J Autoimmun 18:105). The antibodies used for immunohistochemistry were anti-CD4 (rat mAb, clone GK1.5, BD Biosciences, Franklin Lakes, N.J.), anti-CD8 (rat mAb, clone 53-6.7.5, BD Biosciences, Franklin Lakes, N.J.), anti-F4/80 (rat mAb, clone A3-1, Serotec, Oxford, UK) and anti-Asialo GM1 (rabbit polyclonal, Cedarlane, Hornby, Canada). […] Tissue sections of 2 mice/group were evaluated. The number of immune cells was semi-quantified based on the following scheme: […], 0-1 positive cells/40×field; +, 2-5 positive cells/40×field; ++, 6-10 positive cells/40×field, etc.
# NB4 cells [3] = experiment: NB4 growth, cell cycle and Annexin V; type: cell-based, human; settings: sodium stibogluconate 250 μg/ml or ATRA 1 μM, 3 days
# Procedure: The NB4 cell line (Lanotte et al., Blood 77, 1080 (1991)) was a gift from Dr. Dan Lindner of the Cleveland Clinic Foundation. […] and U937 cell lines were purchased from American Type Culture Collection (Rockville, Md.). These human […] cell lines were maintained in RPMI 1640 medium supplemented with 10% fetal calf serum (FCS). For cell proliferation assays, cells were cultured at 37° C. in 10% FCS medium containing various amounts of sodium stibogluconate for 6 days. The cell numbers in the cultures were determined by an MTT assay as described previously in Mosmann, J. Immunol. Methods 65, 55 (1983).
# The cell cycle was analyzed by flow cytometry after 3 days of culture of NB4 cells in the absence or presence of sodium stibogluconate (250 μg/ml) or ATRA (1 μM). Briefly, the cells were fixed in cold ethanol and incubated for 30 minutes at 4° C. in the dark with a solution of […] propidium iodide, 1 mg/ml RNase and 0.1% NP-40. Analysis was performed immediately after staining using the CELLFIT program (Becton Dickinson, Mountain View, Calif.).
# Annexin V staining of exposed membrane phospholipid phosphatidylserine (PS) was done using the Annexin V assay kit (Pharmingen, San Diego, Calif.). Briefly, NB4 cells were cultured in the 10% FCS RPMI 1640 medium in the absence or presence of sodium stibogluconate (250 μg/ml) or ATRA (1 μM) for 3 days. Cells were then washed in PBS twice and stained in binding buffer (10 mM Hepes, pH 7.4; 140 mM NaCl; 2.5 mM CaCl2) containing Annexin V-FITC and propidium iodide for 15 min. The reaction was stopped by adding 10 volumes of binding buffer and analyzed by FACS (Becton Dickinson Facsvantage).
# SHP-1 = target: T1, SHP-1 (Mus musculus, UniProt P29351); experiment: in vitro PTPase assay, GST/SHP-1; type: biochemical; settings: 1-1,000 μg/ml
# T1 construct: made in house
# T1 sequence (P29351 whole entry): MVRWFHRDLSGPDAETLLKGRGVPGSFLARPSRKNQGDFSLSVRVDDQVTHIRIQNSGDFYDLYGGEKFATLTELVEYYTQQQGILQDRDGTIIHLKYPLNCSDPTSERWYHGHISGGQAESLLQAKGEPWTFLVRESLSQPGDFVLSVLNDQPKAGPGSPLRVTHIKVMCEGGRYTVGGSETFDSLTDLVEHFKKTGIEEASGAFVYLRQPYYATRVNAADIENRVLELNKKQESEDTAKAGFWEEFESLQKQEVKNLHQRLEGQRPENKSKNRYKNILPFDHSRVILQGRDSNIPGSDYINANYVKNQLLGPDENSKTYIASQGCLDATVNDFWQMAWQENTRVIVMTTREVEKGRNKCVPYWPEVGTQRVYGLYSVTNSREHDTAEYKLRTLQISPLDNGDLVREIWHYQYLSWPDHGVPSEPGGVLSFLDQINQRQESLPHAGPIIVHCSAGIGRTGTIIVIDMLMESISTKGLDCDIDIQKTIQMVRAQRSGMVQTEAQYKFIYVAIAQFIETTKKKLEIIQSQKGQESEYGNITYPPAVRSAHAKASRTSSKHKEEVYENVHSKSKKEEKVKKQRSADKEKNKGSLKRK
# Procedure: In vitro PTPase activities were measured using the commercial protein tyrosine phosphatase assay kit (Upstate Biotechnology, Inc. (“UBI”)) following established procedure known to one of skill in the art. […] Briefly, 0.01 μg of GST/PTPase fusion proteins was incubated in 50 μl of Tris buffer (10 mM Tris, pH 7.4) containing different concentrations of inhibitors or chemicals (0-1,000 μg/ml) at 22° C. for 10 minutes, followed by addition of 0.2 mM of the phosphotyrosine peptide and incubation at 22° […] 100 μl of Malachite Green solution was added and incubated for 5 minutes, and the absorbance at 660 nm was measured after 5 minutes.
# To assess the reversibility of inhibition of SHP-1 by PTPase inhibitors, GST/SHP-1 fusion protein bound on glutathione beads were pre-incubated in cold Tris buffer or Tris buffer containing the PTPase inhibitors at 4° C. for 30 minutes. The beads were then either subjected to in vitro PTPase assays or washed 3 times in Tris buffer then subjected to in vitro PTPase assays.
# Briefly, individual PTPases (0.1 μg/reaction) in 50 μL of PTPase buffer (50 mM Tris, pH 7.4) were incubated at 22° C. for 10 minutes or as indicated in the absence or presence of inhibitory compounds. Substrates (0.2 mM phosphotyrosine peptide) were then added and allowed to react at 22° C. for 18 hrs. PTPase activity of individual reactions was measured by adding 100 μL of malachite green solution (UBI) and then quantifying the amounts of free phosphate cleaved by the PTPase from the peptide substrate by spectrometry (OD660 nm). […] Relative PTPase activities were calculated based on the formula: (PTPase activity in the presence of an inhibitory compound/PTPase activity in the absence of the compound)× 100%. To assess the reversibility of PTPase inhibition, GST fusion proteins of the PTPases bound on glutathione beads (Pharmacia) were pre-incubated with cold Tris buffer (50 mM Tris, pH 7.0) or Tris buffer containing the inhibitor at 4° C. for 30 minutes. The beads were then washed three times in cold Tris buffer or not washed prior to subjecting to in vitro PTPase assays.
# [4] = test system: Jak2/Stat5 tyrosine phosphorylation in Baf3 cells; experiment: cellular protein tyrosine phosphorylation in Baf3 cells, Western blotting; type: cell-based, murine
# Procedure: For induction of cellular protein phosphorylation by sodium stibogluconate or pervanadate, Baf3 cells were incubated in 0.1% FCS-RPMI 1640 medium at 37° C. for 16 hours. The cells were then washed twice in RPMI 1640 medium and incubated with sodium stibogluconate or pervanandate (0.1 mM) for various times prior to termination by lysing cells in cold lysis buffer (50 mM Tris, pH 7.4; 150 mM NaCl; 0.2 mM Na3VO4; 20 mm NaF; 1% Nonidet P-40; 2 mM PMSF; 20 μg/ml of Aprotinin and 1 mM of sodium molybdic acid). To determine the effect of sodium stibogluconate or potassium antimonyl tartrate on IL-3-induced Jak/Stat phosphorylation, Baf3 cells were deprived of the growth factor for 16 hours in 0.1% FCS RPMI 1640 medium and then incubated with or without sodium stibogluconate or potassium antimonyl tartrate for 10 minutes. IL-3 was next added to the cell suspension and incubated for various times. The Cells were then harvested and lysed in cold lysis buffer at 4° C. for 45 minutes. Total cell lysates (TCL) were separated in SDS-PAGE gels, blotted onto nitrocellulose membrane (Schleicher & Schuell), probed with specific antibodies and detected using an enhanced chemiluminescence kit (ECL, Amersham, Arlington Heights, Ill.).
# PTP1B = target: T2, PTP1B (Homo sapiens, UniProt P18031); experiment: in vitro PTPase assay, GST/PTP1B; type: biochemical; settings: 1-1,000 μg/ml
# T2 construct: purchased Upstate Biotechnology Inc. (Lake Placid, N.Y.)
# T2 sequence (P18031 whole entry, species assumed): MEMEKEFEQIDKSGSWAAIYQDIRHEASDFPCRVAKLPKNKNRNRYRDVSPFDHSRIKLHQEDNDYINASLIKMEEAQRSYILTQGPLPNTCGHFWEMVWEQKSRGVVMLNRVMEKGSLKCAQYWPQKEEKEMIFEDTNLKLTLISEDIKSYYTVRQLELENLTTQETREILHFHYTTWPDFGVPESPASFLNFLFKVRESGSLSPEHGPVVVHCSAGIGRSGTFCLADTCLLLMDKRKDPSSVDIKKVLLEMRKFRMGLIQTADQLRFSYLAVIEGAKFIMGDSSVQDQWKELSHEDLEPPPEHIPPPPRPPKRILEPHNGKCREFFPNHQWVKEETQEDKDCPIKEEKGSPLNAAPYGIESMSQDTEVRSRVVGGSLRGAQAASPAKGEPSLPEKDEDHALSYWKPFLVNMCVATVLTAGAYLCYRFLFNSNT
# Procedure: In vitro PTPase activities were measured using the commercial protein tyrosine phosphatase assay kit (Upstate Biotechnology, Inc. (“UBI”)) following established procedure known to one of skill in the art. This assay measures the in vitro dephosphorylation of a synthetic phosphotyrosine peptide of the sequence Arg-Arg-Leu-Ile-Glu-Asp-Ala-Gle-T- -yr-Ala-Ala-Arg-Gly, wherein the tyrosine is phosphorylated (SEQ ID NO: 3). Briefly, 0.01 μg of GST/PTPase fusion proteins was incubated in 50 μl of Tris buffer (10 mM Tris, pH 7.4) containing different concentrations of inhibitors or chemicals (0-1,000 μg/ml) at 22° C. for 10 minutes, followed by addition of 0.2 mM of the phosphotyrosine peptide and incubation at 22° C. for 18 hours. 100 μl of Malachite Green solution was added and incubated for 5 minutes, and the absorbance at 660 nm was measured after 5 minutes.
# In vitro PTPase assays were used to determine the effects of levamisole (Sigma), pentamidine (American Pharmaceutical Partners, Inc.), and ketoconazole (Sigma) on recombinant PTPases, following established procedures (Pathak et al., J. Immunol. 167, 3391 (2001); Pathak et al., Leukemia 16, 2285 (2002), Yi et al., J. Immunol. 169, 5978 (2002)) using a synthetic phosphotyrosine peptide or DiFMUP as the substrate as detailed above in section I.A.2.
# Baf3 cells = experiment: Baf3 cell proliferation assay; type: cell-based, murine
# Procedure: The murine hematopoietic cell line Baf3 was maintained in RPMI 1640 medium supplemented with 10% fetal calf serum (FCS) and murine IL-3 (20 units/ml) as described previously in Damen et al., J. Biol. Chem. 270, 23402 (1995). Human myeloid cell line TF-1 was maintained in RPMI 1640 supplemented with 10% FCS and 40 ng/ml of recombinant human GM-CSF as described previously in Thomassen et al., Clin. Immunol. 95, 85 (2000). For cell proliferation assays, cells were washed in 10% FCS medium twice, resuspended in 10% FCS medium, incubated at 37° C. for 16 hours, and then cultured at 37° C. in 10% FCS medium containing various amounts of cytokines, sodium stibogluconate, or potassium antimonyl tartrate for 3-6 days as indicated. The cell numbers in proliferation assays were determined by an MTT assay or by microscopic cell counting as indicated.
# [5] = sodium stibogluconate 400 μg/ml, GM-CSF 25 ng/ml, ATRA
compound,measurement,setting,value
GM-CSF: recombinant human granulocyte/macrophage colony stimulating factor,maximal increase of NBT-positive HL-60 cells,HL-60 cells; GM-CSF alone 25 ng/ml,8-10%
same,maximal increase of NBT-positive U937 cells,U937 cells; GM-CSF alone 25 ng/ml,8-10%
same,effect on NB-4 cell differentiation,NB4 cells [1]; GM-CSF alone,no detectable effect
"IL-2: recombinant IL-2 (Proleukin, Chiron)",Renca tumor growth inhibition,Renca tumors,little effects; also recorded: failed to inhibit Renca tumor growth
same,increase of tumor-infiltrating Mφ (F4/80+),[2],comparable levels
"CC1=C(/C=C/C(C)=C/C=C/C(C)=C/C(=O)O)C(C)(C)CCC1 [ATRA, All-trans-retinoic acid]",NBT-positive (differentiated) HL-60 cells,HL-60 cells; [5],90%
same,cell cycle of NB4 cells,NB4 cells [3],arrested at GI phase
same,NBT-positive (differentiated) U937 cells,U937 cells; [5],72% and 73%
same,NB4 differentiation by short exposure versus long term exposure,NB4 cells [1]; ATRA,modest
O.O.O.O=C([O-])[C@H]([O-])[C@@H]([O-])C(=O)[O-].O=C([O-])[C@H]([O-])[C@@H]([O-])C(=O)[O-].[K+].[K+].[Sb+3].[Sb+3] [potassium antimonyl tartrate],inhibition of SHP-1,SHP-1,no detectable inhibition
same,IL-3-induced Stat5 phosphorylation,[4],failed to enhance IL-3-induced Stat5 phosphorylation
same,inhibition of PTP1B,PTP1B,no detectable inhibition
same,IL-3-induced proliferation of Baf3 cells,Baf3 cells,failed to enhance
same,toxicity against Baf3 cells,Baf3 cells,marked toxicity
